Consider 4 compounds from ChEMBL document CHEMBL3739418, “RGD-peptides modifying dexamethasone: to enhance the anti-inflammatory efficacy and limit the risk of osteoporosis” (Medchemcomm, 2015).

For data set [1], the system named is Mus musculus. In words: Antiinflammatory activity in ICR mouse assessed as inhibition of xylene-induced edema at 25.5 umol/kg, po administered for 30 mins prior to xylene challenge measured after 2 hrs. The format is functional, organism-based.
The test system of data set [2] is Mus musculus. In words: Antiinflammatory activity in xylene-induced ICR mouse edema model assessed as decrease in plasma TNFalpha level at 25.5 umol/kg, po after 60 mins by microplate reader analysis. Format: functional, organism-based.
The test system of data set [3] is Mus musculus. In words: Antiinflammatory activity in xylene-induced ICR mouse edema model assessed as decrease in plasma IL8 level at 25.5 umol/kg, po after 60 mins by microplate reader analysis. The format is functional, organism-based.
For another data set, the system named is A549. In words: Downregulation of DNA replication in human A549 cells at 1 uM after 48 hrs by UV-visible spectrophotometric analysis. Format: functional, cell-based.
Data set [4] is described as follows: Drug metabolism in cytosome of human A549 cells assessed as dexamethasone dimer formation at 1 uM by ESI-MS analysis. Format: ADME, cell-based, Cytoplasm. The note with it: a549, 1 µM.
In data set [5] the test system is Mus musculus. In words: Toxicity in BALB/C mouse assessed as total volumetric bone mineral density at 1.43 umol/kg/day, po administered for 15 days (reference value: 554.3 +/- 17.2 mg/cm3). The format is organism-based. The conditions noted are these: in vivo, 360 h.
Data set [6] concerns Mus musculus. In words: Toxicity in BALB/C mouse assessed as decrease in dry femur weight at 1.43 umol/kg/day, po administered for 15 days. The format is organism-based. The conditions noted are these: in vivo, 360 h.
The test system of data set [7] is Mus musculus. In words: Toxicity in BALB/C mouse assessed as femur loss at 1.43 umol/kg/day, po administered for 15 days by pQCT analysis. The format is organism-based. The conditions noted are these: in vivo, 360 h.
The test system of data set [8] is Mus musculus. In words: Toxicity in BALB/C mouse assessed as decrease in ash weight at 1.43 umol/kg/day, po administered for 15 days. Format: organism-based. The note with it: in vivo, 360 h.
In data set [9] the test system is Mus musculus. In words: Toxicity in BALB/C mouse assessed as decrease in femur calcium level at 1.43 umol/kg/day, po administered for 15 days by o-methylphenolphthalein complexing ketone-based assay. The note with it: in vivo, 360 h. The format is organism-based.
Data set [10] has as its system Mus musculus. In words: Toxicity in BALB/C mouse assessed as decrease in femur phosphor level at 1.43 umol/kg/day, po administered for 15 days by molybdenum blue-based assay. Format: organism-based. The note with it: in vivo, 360 h.
In data set [11] the test system is Mus musculus. In words: Antiinflammatory activity in po dosed ICR mouse assessed as inhibition of xylene-induced edema administered for 30 mins prior to xylene challenge measured after 2 hrs. Format: functional, organism-based.

The source made the active and inactive calls. No cut-off for these calls is given here. Residues, ends and D or L forms follow the SMILES beside them. *: point of attachment. Succinyl(O21-dexamethasone) = C[C@@H]1C[C@H]2[C@@H]3CCC4=CC(=O)C=C[C@]4(C)[C@@]3(F)[C@@H](O)C[C@]2(C)[C@@]1(O)C(=O)COC(=O)CCC(=O)*

Regarding `C[C@@H]1C[C@H]2[C@@H]3CCC4=CC(=O)C=C[C@]4(C)[C@@]3(F)[C@@H](O)C[C@]2(C)[C@@]1(O)C(=O)COC(=O)CCC(=O)N[C@@H](CCCNC(=N)N)C(=O)NCC(=O)N[C@@H](CC(=O)O)C(=O)N[C@@H](Cc1ccccc1)C(=O)O` ({Succinyl(O21-dexamethasone)}-RGDF-OH), the inhibition entry in the data set with Mus musculus [1] is “Active”. The result in the data set on Mus musculus [2], in the data set with Mus musculus [3] and in the data set with A549 was Active. In addition, the Drug metabolism entry in data set [4] is recorded as “metabolite_detected”. Besides, the Activity is on record as 555.1 mg/cm3 with Mus musculus [5] and “Non-toxic” in the data set with Mus musculus [6].
Regarding `C[C@@H]1C[C@H]2[C@@H]3CCC4=CC(=O)C=C[C@]4(C)[C@@]3(F)[C@@H](O)C[C@]2(C)[C@@]1(O)C(=O)CO` [DEXAMETHASONE], the inhibition entry with Mus musculus [1] is “Active”. The outcome in the data set with Mus musculus [2], in the data set with Mus musculus [3] and in the data set on A549 was Active. Also, the Activity entry in the data set with Mus musculus [7] is on record as “Toxic”; in the data set with Mus musculus [5], 506.3 mg/cm3; in the data set with Mus musculus [6], “Toxic”; with Mus musculus [8] it was “Toxic”; with Mus musculus [9], “Toxic”; with Mus musculus [10], “Non-toxic”.
For `C[C@@H]1C[C@H]2[C@@H]3CCC4=CC(=O)C=C[C@]4(C)[C@@]3(F)[C@@H](O)C[C@]2(C)[C@@]1(O)C(=O)COC(=O)CCC(=O)N[C@@H](CCCNC(=N)N)C(=O)NCC(=O)N[C@@H](CC(=O)O)C(=O)N[C@@H](CO)C(=O)O` ({Succinyl(O21-dexamethasone)}-RGDS-OH), the inhibition result in the data set on Mus musculus [11] was “Dose-dependent effect”. Moreover, the outcome in the data set on Mus musculus [2], in the data set with Mus musculus [3] and in the data set on A549 was Active. Besides, the Drug metabolism entry in [4] is reported as “metabolite_detected”. For the same compound, the Activity is on record as 558.5 mg/cm3 in the data set with Mus musculus [5] and “Non-toxic” in the data set with Mus musculus [6].
As to `CC(C)[C@H](NC(=O)[C@H](CC(=O)O)NC(=O)CNC(=O)[C@H](CCCNC(=N)N)NC(=O)CCC(=O)OCC(=O)[C@@]1(O)[C@H](C)C[C@H]2[C@@H]3CCC4=CC(=O)C=C[C@]4(C)[C@@]3(F)[C@@H](O)C[C@@]21C)C(=O)O` ({Succinyl(O21-dexamethasone)}-RGDV-OH), in the data set with Mus musculus [1], the inhibition entry is “Active”. The outcome with Mus musculus [2], with Mus musculus [3] and in the data set on A549 was Active. For the same compound, the Drug metabolism result in [4] is listed as “metabolite_detected”. The Activity is recorded as 540.3 mg/cm3 in the data set with Mus musculus [5] and “Non-toxic” with Mus musculus [6].
